According to patent publication US20100184711A1, “Alpha-GLYCOSYL THIOLS AND alpha-S-LINKED GLYCOLIPIDS” (UNIVERSITY COLLEGE DUBLIN, NATIONAL UNIVERSITY OF IRELAND, …, priority 2008, published 2010):

Test system: iNKT cells
Assay: iNKT cells co-cultured with CD1d+ cells, cytokine release
Assay type: cell-based
Procedure: iNKT cells were treated with an α-S-linked galactosylceramide (alpha-GalCer) to determine immunostimulatory activity. FIGS. 4 and 5 show the amounts of interferon-gamma and IL-4 released (expressed as a fold-increase over the levels produced in responses to the mock-transfected cells alone) in 5 experiments. Cytokine was released when iNKT cells were co-cultured with CD1d+ cells in the absence of added glycolipid (second bar). This was enhanced for both cytokines when alpha-GalCer was added and blocked using an antibody specific for CD1d.

[1] = iNKT cells co-cultured with CD1d+ cells, compared with no added glycolipid, 5 experiments, FIGS. 4 and 5

CCCCCCCCCCCCCCCCCCCCCCCCCC(=O)N[C@@H](CO[C@H]1O[C@H](CO)[C@H](O)[C@H](O)[C@H]1O)[C@H](O)[C@H](O)CCCCCCCCCCCCCC [alpha-GalCer]
effect of antibody specific for CD1d on glycolipid-induced cytokine release (iNKT cells co-cultured with CD1d+ cells plus anti-CD1d antibody, both cytokines): blocked
IL-4 released (fold-increase over the levels produced in response to mock-transfected cells alone) [1]: enhanced
interferon-gamma released (fold-increase over the levels produced in response to mock-transfected cells alone) [1]: enhanced
